# Assay results taken from patent US9802960B2 (MILLENNIUM PHARMACEUTICALS, INC., priority 2014, dated 2017).
# pIC50: −log10 of the molar value.
# Target: Human VPS34 (Homo sapiens (Human), UniProt Q8NEB9)
# Assay: Human VPS34 enzyme assay (Adapta TR-FRET)
# Type: biochemical
# Details: IC50 range class
# Human VPS34, sequence (Q8NEB9 whole entry): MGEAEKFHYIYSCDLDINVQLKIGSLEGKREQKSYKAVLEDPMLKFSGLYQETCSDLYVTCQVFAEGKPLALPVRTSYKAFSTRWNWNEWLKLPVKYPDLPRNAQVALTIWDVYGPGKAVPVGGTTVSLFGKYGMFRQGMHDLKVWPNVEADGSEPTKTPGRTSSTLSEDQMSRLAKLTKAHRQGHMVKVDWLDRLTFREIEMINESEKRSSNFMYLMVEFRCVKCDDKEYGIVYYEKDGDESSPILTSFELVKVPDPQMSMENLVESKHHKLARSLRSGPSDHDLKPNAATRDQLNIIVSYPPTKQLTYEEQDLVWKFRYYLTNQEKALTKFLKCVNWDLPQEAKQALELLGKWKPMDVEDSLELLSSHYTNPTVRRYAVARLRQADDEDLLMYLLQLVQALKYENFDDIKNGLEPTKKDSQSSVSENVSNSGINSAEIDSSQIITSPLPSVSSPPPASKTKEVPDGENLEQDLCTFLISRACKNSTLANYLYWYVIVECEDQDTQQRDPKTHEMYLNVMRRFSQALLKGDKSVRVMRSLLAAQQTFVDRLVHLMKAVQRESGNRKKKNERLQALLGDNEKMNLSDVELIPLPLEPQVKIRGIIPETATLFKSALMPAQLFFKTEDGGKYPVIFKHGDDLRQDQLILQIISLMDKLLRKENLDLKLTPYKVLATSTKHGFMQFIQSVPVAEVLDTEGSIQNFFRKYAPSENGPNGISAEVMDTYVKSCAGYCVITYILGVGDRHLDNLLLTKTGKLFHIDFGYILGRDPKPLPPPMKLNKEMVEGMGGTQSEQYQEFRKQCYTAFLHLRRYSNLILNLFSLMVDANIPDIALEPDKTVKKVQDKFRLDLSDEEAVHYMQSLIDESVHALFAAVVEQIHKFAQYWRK
row,Structure (SMILES),pIC50
1,"CC(=O)Nc1cc(-c2cnc(N)c(NS(=O)(=O)c3ccc(F)cc3F)c2)ccn1 [Compound I-64, N-(6-amino-5-{[(2,4-difluorophenyl)sulfonyl]amino}-3,4′-bipyridin-2′-yl)acetamide]",> 8.00

# Same assay, conditions: compound concentration 1.11 μM
row,Structure (SMILES),Percent Inhibition
1,"CC(=O)Nc1cc(-c2cnc(N)c(S(=O)(=O)NCC(C)C)c2)ccn1 [Compound I-73, N-[6-amino-5-(isobutylsulfamoyl)-3,4′-bipyridin-2′-yl]acetamide]",>99%

# Same assay, conditions: compound concentration 1.11 μM; read-out: Percent Inhibition
row,Structure (SMILES),inhibition at 1.11 µM
1,"COC(=O)Nc1cc(-c2cnc3ccn(CC4CC4)c3c2)ccn1 [Compound I-42, Methyl {4-[1-(cyclopropylmethyl)-1H-pyrrolo[3,2-b]pyridin-6-yl]pyridin-2-yl}carbamate]",> 99%
2,"CC(=O)Nc1cc(-c2cnc(N)c(S(=O)(=O)Nc3ccccc3)c2)ccn1 [Compound I-43, N-[6-amino-5-(phenylsulfamoyl)-3,4′-bipyridin-2′-yl]acetamide]",> 99%
3,"CCc1ccc(S(=O)(=O)Nc2cc(-c3ccnc(NC(C)=O)c3)cnc2C)cc1 [Compound I-44, N-(5-{[(4-ethylphenyl)sulfonyl]amino}-6-methyl-3,4′-bipyridin-2′-yl)acetamide]",> 99%
4,"CC(=O)Nc1cc(-c2cnc(C)c(NS(=O)(=O)c3cccnc3)c2)ccn1 [Compound I-45, N-{6-methyl-5-[(pyridin-3-ylsulfonyl)amino]-3,4′-bipyridin-2′-yl}acetamide]",> 99%
5,"CC(=O)Nc1cc(-c2cnc(C)c(N(C)S(=O)(=O)c3ccccc3)c2)ccn1 [Compound I-46, N-{6-methyl-5-[methyl(phenylsulfonyl)amino]-3,4′-bipyridin-2′-yl}acetamide]",> 99%
6,"CC(=O)Nc1cc(-c2cncc(S(=O)(=O)N3CCCC3)c2)ccn1 [Compound I-47, N-[5-(pyrrolidin-1-ylsulfonyl)-3,4′-bipyridin-2′-yl]acetamide]",> 99%
7,"CC(=O)Nc1cc(-c2cncc(C(=O)N(C)C)c2)ccn1 [Compound I-48, 2′-acetamido-N,N-dimethyl-3,4′-bipyridine-5-carboxamide]",> 99%
8,"CC(=O)Nc1cc(-c2cnc(N)c(S(=O)(=O)NCC3CC3)c2C)ccn1 [Compound I-49, N-{6-amino-5-[(cyclopropylmethyl)sulfamoyl]-4-methyl-3,4′-bipyridin-2′-yl}acetamide]",> 99%
9,"CC(=O)Nc1cc(-c2cnc(N)c(S(=O)(=O)Cc3ccccc3C(F)(F)F)c2)ccn1 [Compound I-50, N-(6-amino-5-{[2-(trifluoromethyl)benzyl]sulfonyl}-3,4′-bipyridin-2′-yl)acetamide]",> 99%
10,"CC(=O)Nc1cc(-c2cncc(S(C)(=O)=O)c2)ccn1 [Compound I-51, N-[5-(methylsulfonyl)-3,4′-bipyridin-2′-yl]acetamide]",91%
11,CC(=O)Nc1cc(-c2cnc(C)c(NS(=O)(=O)c3cc(F)ccc3F)c2)ccn1 [Compound I-52],> 99%
12,"CC(=O)Nc1cc(-c2cnc(NCC3CC3)c(N)c2)ccn1 [Compound I-53, N-{5-amino-6-[(cyclopropylmethyl)amino]-3,4′-bipyridin-2′-yl}acetamide]",67%
13,"CC(=O)Nc1cc(-c2cnc3[nH]cc(CN4CCCC4)c3c2)ccn1 [Compound I-54, N-{4-[3-(pyrrolidin-1-ylmethyl)-1H-pyrrolo[2,3-b]pyridin-5-yl]pyridin-2-yl}acetamide]",83%
14,"COC(=O)Nc1cc(-c2cnc(N)c(C(=O)N(C)C)c2)ccn1 [Compound I-55, methyl [6-amino-5-(dimethylcarbamoyl)-3,4′-bipyridin-2′-yl]carbamate]",> 99%
15,"CC(=O)Nc1cc(-c2cnc(Cl)c(NS(=O)(=O)c3ccccc3)c2)c(C)cn1 [Compound I-56, N-{6-chloro-5′-methyl-5-[(phenylsulfonyl)amino]-3,4′-bipyridin-2′-yl}acetamide]",> 99%
16,"CNC(=O)c1cc(-c2ccnc(NC(C)=O)c2)cnc1N [Compound I-57, 2′-acetamido-6-amino-N-methyl-3,4′-bipyridine-5-carboxamide]",> 99%
17,"COc1cc(F)ccc1S(=O)(=O)Nc1cc(-c2ccnc(NC(C)=O)c2)cnc1C [Compound I-58, N-(5-{[(4-fluoro-2-methoxyphenyl)sulfonyl]amino}-6-methyl-3,4′-bipyridin-2′-yl)acetamide]",> 99%
18,"CC(=O)Nc1cc(-c2cnc(C)c(NS(=O)(=O)c3ccc(F)c(F)c3)c2)ccn1 [Compound I-59, N-(5-{[(3,4-difluorophenyl)sulfonyl]amino}-6-methyl-3,4′-bipyridin-2′-yl)acetamide]",> 99%
19,"CC(=O)Nc1cc(-c2cnc(N)c(C(=O)N3CCC(F)(F)C3)c2)ccn1 [Compound I-60, N-{6-amino-5-[(3,3-difluoropyrrolidin-1-yl)carbonyl]-3,4′-bipyridin-2′-yl}acetamide]",> 99%
20,"CC(=O)Nc1cc(-c2cnc(N)c(S(N)(=O)=O)c2)ccn1 [Compound I-61, N-(6-amino-5-sulfamoyl-3,4′-bipyridin-2′-yl)acetamide]",95%
21,"CC(=O)Nc1cc(-c2cnc(C)c(NS(=O)(=O)c3ccccc3C(F)(F)F)c2)ccn1 [Compound I-62, N-[6-methyl-5-({[2-(trifluoromethyl)phenyl]sulfonyl}amino)-3,4′-bipyridin-2′-yl]acetamide]",> 99%

row,Structure (SMILES),inhibition at 1.11 µM
1,"CNc1ncc(-c2ccnc(NC(C)=O)c2)cc1S(=O)(=O)Nc1ccc(F)cc1F [Compound I-63, N-{5-[(2,4-difluorophenyl)sulfamoyl]-6-(methylamino)-3,4′-bipyridin-2′-yl}acetamide]",> 99%
2,"CC(=O)Nc1cc(-c2cnc(N)c(NS(=O)(=O)c3ccc(F)cc3F)c2)ccn1 [Compound I-64, N-(6-amino-5-{[(2,4-difluorophenyl)sulfonyl]amino}-3,4′-bipyridin-2′-yl)acetamide]",> 99%
3,"CC(=O)Nc1cc(-c2cnc(NCC3CC3)c(NCC3CC3)c2)ccn1 [Compound I-65, N-{5,6-bis[(cyclopropylmethyl)amino]-3,4′-bipyridin-2′-yl}acetamide]",93%
4,"CC(=O)Nc1cc(-c2cnc3[nH]c(C)nc3c2)ccn1 [Compound I-66, N-[4-(2-methyl-3H-imidazo[4,5-b]pyridin-6-yl)pyridin-2-yl]acetamide]",88%
5,"CC(=O)Nc1cc(-c2cnc3c(c2)CCN3)ccn1 [Compound I-67, N-[4-(2,3-dihydro-1H-pyrrolo[2,3-b]pyridin-5-yl)pyridin-2-yl]acetamide]",> 99%
6,"CC(=O)Nc1cc(-c2cnc3c(c2)NS(=O)(=O)N3CC2CC2)ccn1 [Compound I-68, N-{4-[3-(cyclopropylmethyl)-2,2-dioxido-1,3-dihydro[1,2,5]thiadiazole[3,4-b]pyridin-6-yl]pyridin-2-yl}acetamide]",98%
7,"CCS(=O)(=O)c1cc(-c2ccnc(NC(C)=O)c2)cnc1N [Compound I-69, N-[6-amino-5-(ethylsulfonyl)-3,4′-bipyridin-2′-yl]acetamide]",> 99%
8,"CC(=O)Nc1cc(-c2cnc(C)c(NS(=O)(=O)c3cccc(C(C)(C)C)c3)c2)ccn1 [Compound I-70, N-(5-{[(3-tert-butylphenyl)sulfonyl]amino}-6-methyl-3,4′-bipyridin-2′-yl)acetamide]",> 99%
9,"CC(=O)Nc1cc(-c2cnc(N)c(C(=O)N3CCc4ccccc43)c2)ccn1 [Compound I-71, N-[6-amino-5-(2,3-dihydro-1H-indol-1-ylcarbonyl)-3,4′-bipyridin-2′-yl]acetamide]",> 99%
10,"CC(=O)Nc1cc(-c2cnc(C)c(NS(=O)(=O)C3CCCCC3)c2)ccn1 [Compound I-72, N-{5-[(cyclohexylsulfonyl)amino]-6-methyl-3,4′-bipyridin-2′-yl}acetamide]",> 99%
11,"COc1ccccc1S(=O)(=O)Nc1cc(-c2ccnc(NC(C)=O)c2)cnc1C [Compound I-74, N-(5-{[(2-methoxyphenyl)sulfonyl]amino}-6-methyl-3,4′-bipyridin-2′-yl)acetamide]",> 99%
12,"CC(=O)Nc1cc(-c2cnc(C)c(C(=O)N(C)C)c2)ccn1 [Compound I-75, 2′-acetamido-N,N,6-trimethyl-3,4′-bipyridine-5-carboxamide]",> 99%
13,CC(=O)Nc1cc(-c2cnc(N)c(S(=O)(=O)N(C)Cc3ccccc3)c2)ccn1 [Compound I-76],> 99%
14,"CC(=O)Nc1cc(-c2cnc(N)c(S(=O)(=O)N(C(C)C)C(C)C)c2)ccn1 [Compound I-77, N-[6-amino-5-(diisopropylsulfamoyl)-3,4′-bipyridin-2′-yl]acetamide]",> 99%
15,"CC(=O)Nc1cc(-c2cnc(C)c(NS(=O)(=O)c3cccc4ccccc34)c2)ccn1 [Compound I-78, N-{6-methyl-5-[(1-naphthylsulfonyl)amino]-3,4′-bipyridin-2′-yl}acetamide]",> 99%
16,"CC(=O)Nc1cc(-c2cnc(N)c(C(=O)N3CCN(C)CC3)c2)ccn1 [Compound I-79, N-{6-amino-5-[(4-methylpiperazin-1-yl)carbonyl]-3,4′-bipyridin-2′-yl}acetamide]",> 99%
17,"CC(=O)Nc1cc(-c2cnc(C)c(NS(=O)(=O)c3ccc(C)cc3)c2)ccn1 [Compound I-80, N-(6-methyl-5-{[(4-methylphenyl)sulfonyl]amino}-3,4′-bipyridin-2′-yl)acetamide]",> 99%
18,"CC(=O)Nc1cc(-c2cnc(N)c(C(=O)N3CCC(C)CC3)c2)ccn1 [Compound I-81, N-{6-amino-5-[(4-methylpiperidin-1-yl)carbonyl]-3,4′-bipyridin-2′-yl}acetamide]",> 99%
19,"CC(=O)Nc1cc(-c2cnc(N)c(C(=O)Nc3cccc(F)c3)c2)ccn1 [Compound I-82, 2′-acetamido-6-amino-N-(3-fluorophenyl)-3,4′-bipyridine-5-carboxamide]",> 99%
20,"CC(=O)Nc1cc(-c2cnc(C)c(N(CC3CC3)S(=O)(=O)C3CC3)c2)ccn1 [Compound I-83, N-{5-[(cyclopropylmethyl)(cyclopropylsulfonyl)amino]-6-methyl-3,4′-bipyridin-2′-yl}acetamide]",82%
21,"CC(=O)Nc1cc(-c2cnc(C)c(NS(=O)(=O)c3ccccc3)c2)ccn1 [Compound I-84, N-{6-methyl-5-[(phenylsulfonyl)amino]-3,4′-bipyridin-2′-yl}acetamide]",> 99%
